From ChEMBL document CHEMBL1134896, “Antileishmanial dinitroaniline sulfonamides with activity against parasite tubulin” (Bioorg Med Chem Lett, 2002)
pIC50: −log10 of the molar value.

Assays:
Leishmania sp. = assay: Percentage inhibition against Leishmania tubulin in vitro was determined at 20 uM; type: functional
Leishmania donovani [1] = assay: Inhibitory activity against Leishmania donovani amastigotes; type: functional, organism-based
Leishmania donovani [2] = assay: Inhibitory activity against Leishmania donovani promastigotes; type: functional, organism-based

Row | SMILES | pIC50 (Leishmania donovani [1]) | pIC50 (Leishmania donovani [2]) | inhibition at 20 µM (Leishmania sp.) [%]
1 | CCCNc1c([N+](=O)[O-])cc(S(N)(=O)=O)cc1[N+](=O)[O-] | – | 4.17 | 43
2 | NS(=O)(=O)c1cc([N+](=O)[O-])c(N2CCOCC2)c([N+](=O)[O-])c1 | – | < 4.00 | 21
3 | CCCCCCN(CCCCCC)c1c([N+](=O)[O-])cc(S(N)(=O)=O)cc1[N+](=O)[O-] | 4.93 | 4.91 | 48
4 | CCCN(CCC)c1ccc(S(N)(=O)=O)cc1[N+](=O)[O-] | – | 4.05 | 19
5 | CCN(CC)c1c([N+](=O)[O-])cc(S(N)(=O)=O)cc1[N+](=O)[O-] | – | 4.16 | 58
6 | CCCN(CCC)c1c([N+](=O)[O-])cc(C(=N)NO)cc1[N+](=O)[O-] | – | < 4.00 | 35
7 | CCCCCN(CCCCC)c1c([N+](=O)[O-])cc(S(N)(=O)=O)cc1[N+](=O)[O-] | 5.05 | 5.10 | 95
8 | NS(=O)(=O)c1cc([N+](=O)[O-])c(N2CCCC2)c([N+](=O)[O-])c1 | – | 4.01 | 57
9 | CCCN(CCC)c1c([N+](=O)[O-])cc(S(N)(=O)=O)cc1[N+](=O)[O-] [ORYZALIN] | 4.14 | 4.36 | 54
10 | N=C(N)c1ccc(OCCCCCOc2ccc(C(=N)N)cc2)cc1 [PENTAMIDINE] | 5.70 | 5.79 | –

More lines, main results first:

Row | pIC50 (Leishmania donovani [1]) | pIC50 (Leishmania donovani [2]) | SMILES | inhibition at 20 µM (Leishmania sp.) [%]
11 | 4.24 | 4.25 | CCCNS(=O)(=O)c1cc([N+](=O)[O-])c(N(CCC)CCC)c([N+](=O)[O-])c1 | 97
12 | – | 4.12 | CCCN(CCC)c1c([N+](=O)[O-])cc(C(N)=O)cc1[N+](=O)[O-] | 34
13 | 5.27 | 4.83 | CCCN(CCC)c1c([N+](=O)[O-])cc(S(=O)(=O)Nc2ccccc2)cc1[N+](=O)[O-] | 108
14 | 4.70 | 4.75 | CCCCN(CCCC)c1c([N+](=O)[O-])cc(S(N)(=O)=O)cc1[N+](=O)[O-] | 89
15 | – | < 4.00 | CCCN(CCC)c1c([N+](=O)[O-])cc(C#N)cc1[N+](=O)[O-] | 25
